Our source for the EC50 values is patent US11116760B2 (Gilead Sciences, Inc., priority 2018, dated 2021).

The structures appear in SMILES notation.

Chain of α4β7 integrin (P13612 34-1032): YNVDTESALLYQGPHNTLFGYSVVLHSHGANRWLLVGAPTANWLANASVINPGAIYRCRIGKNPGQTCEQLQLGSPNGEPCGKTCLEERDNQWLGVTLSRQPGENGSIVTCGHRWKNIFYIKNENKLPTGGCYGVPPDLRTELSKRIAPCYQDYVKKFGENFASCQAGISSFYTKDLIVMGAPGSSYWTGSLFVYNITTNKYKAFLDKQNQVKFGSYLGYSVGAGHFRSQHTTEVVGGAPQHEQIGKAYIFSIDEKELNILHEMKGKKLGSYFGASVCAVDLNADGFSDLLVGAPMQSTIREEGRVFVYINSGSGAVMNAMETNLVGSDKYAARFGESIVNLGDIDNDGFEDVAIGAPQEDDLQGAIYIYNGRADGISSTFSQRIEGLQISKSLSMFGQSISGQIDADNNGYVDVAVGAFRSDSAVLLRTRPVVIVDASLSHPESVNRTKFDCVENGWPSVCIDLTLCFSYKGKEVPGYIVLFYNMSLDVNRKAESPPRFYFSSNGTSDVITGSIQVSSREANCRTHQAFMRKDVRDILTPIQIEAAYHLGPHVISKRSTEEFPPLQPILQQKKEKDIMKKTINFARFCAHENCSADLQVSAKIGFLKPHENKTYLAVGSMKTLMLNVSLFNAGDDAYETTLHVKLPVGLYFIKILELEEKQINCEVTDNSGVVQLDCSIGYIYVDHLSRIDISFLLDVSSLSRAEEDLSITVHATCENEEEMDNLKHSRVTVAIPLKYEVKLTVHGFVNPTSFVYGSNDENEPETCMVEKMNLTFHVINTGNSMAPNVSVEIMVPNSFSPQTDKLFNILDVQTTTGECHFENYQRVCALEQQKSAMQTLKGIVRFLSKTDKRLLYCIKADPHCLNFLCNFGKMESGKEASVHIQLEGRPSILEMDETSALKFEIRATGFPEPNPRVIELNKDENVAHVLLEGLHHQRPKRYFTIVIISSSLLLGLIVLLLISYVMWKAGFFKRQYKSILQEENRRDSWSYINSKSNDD
Chain of α4β7 integrin (P26010 20-798): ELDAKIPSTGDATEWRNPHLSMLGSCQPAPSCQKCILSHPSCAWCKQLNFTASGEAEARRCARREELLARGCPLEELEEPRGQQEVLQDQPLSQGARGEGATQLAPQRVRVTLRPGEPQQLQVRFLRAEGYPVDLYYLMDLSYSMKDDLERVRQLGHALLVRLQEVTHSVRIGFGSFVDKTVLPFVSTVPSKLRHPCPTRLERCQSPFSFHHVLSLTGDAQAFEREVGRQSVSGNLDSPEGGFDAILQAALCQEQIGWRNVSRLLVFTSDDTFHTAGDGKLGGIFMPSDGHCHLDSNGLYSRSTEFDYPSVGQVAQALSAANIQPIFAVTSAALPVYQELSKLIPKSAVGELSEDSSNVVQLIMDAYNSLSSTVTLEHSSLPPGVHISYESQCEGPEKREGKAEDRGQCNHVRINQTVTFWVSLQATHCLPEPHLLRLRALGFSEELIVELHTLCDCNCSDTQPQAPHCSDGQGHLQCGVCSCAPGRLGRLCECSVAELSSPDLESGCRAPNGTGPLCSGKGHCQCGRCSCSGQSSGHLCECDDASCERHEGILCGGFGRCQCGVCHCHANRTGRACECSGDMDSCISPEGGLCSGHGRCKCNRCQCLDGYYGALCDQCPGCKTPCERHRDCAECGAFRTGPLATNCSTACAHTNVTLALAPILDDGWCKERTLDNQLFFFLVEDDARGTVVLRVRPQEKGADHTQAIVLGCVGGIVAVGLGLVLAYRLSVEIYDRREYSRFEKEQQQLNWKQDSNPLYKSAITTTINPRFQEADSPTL

One assay has as its target α4β7 integrin (Homo sapiens (Human), UniProt P13612+P26010). Briefly: α4β7 Integrin Cell Capture Assay. The class given is cell-based. As to conditions: RPMI8866 cells captured on MadCAM-1 extracellular domain-coated plate.
For orientation: EC50 means the concentration needed to bring the measured effect to its halfway point. Lower therefore signals greater potency. The molecule `CC[C@@H](Nc1cc(F)c(C(=O)N[C@@H](Cc2ccc(-c3c(C(F)(F)F)n(C)cc(C)c3=O)c3ncccc23)C(=O)O)c(F)c1)C(F)(F)F` [Example 479] displayed an EC50 of 1.19 nM.
`CC[C@@]1(C)CN(c2cc(F)c(C(=O)N[C@@H](Cc3ccc(-c4c(C(F)(F)F)cc(C)n(C)c4=O)c4ncccc34)C(=O)O)c(F)c2)CCO1` [Example 445] came in with an EC50 of 0.984 nM.
Molecule `Cn1c(=O)n(-c2ccc(C[C@H](NC(=O)c3c(F)cc(N4CCOC[C@@H]4C(F)(F)F)cc3Cl)C(=O)O)c3cccnc23)c(=O)c2ccncc21` [Example 414] had an EC50 of 0.048 nM.

The same assay, now with this note: Table 1; capture of α4β7 expressing RPM18866 cells on MadCAM-1 extracellular domain-coated plate.
The molecule `Cc1cc(C(F)(F)F)c(-c2ccc(C[C@H](NC(=O)c3c(Cl)cccc3Cl)C(=O)O)c3cccnc23)c(=O)n1C` [Example 73, (S)-2-(2,6-dichlorobenzamido)-3-(8-(1,6-dimethyl-2-oxo-4-(trifluoromethyl)-1,2-dihydropyridin-3-yl)quinolin-5-yl)propanoic acid] showed a 50% effective concentration (EC50) of 2.5 nM.
Consider `CC[C@@H](Nc1cc(F)c(C(=O)N[C@@H](Cc2ccc(-c3c(C(F)(F)F)c4ccccc4n(C)c3=O)c3ncccc23)C(=O)O)c(F)c1)C(F)(F)F` [Example 123, (S)-2-(2,6-difluoro-4-(((R)-1,1,1-trifluorobutan-2-yl)amino)benzamido)-3-(1-methyl-2-oxo-4-(trifluoromethyl)-1,2-dihydro-[3,8′-biquinolin]-5′-yl)propanoic acid], for which a half-maximal response (EC50) required 0.9 nM.
Molecule `CC[C@@H](N1CCCc2c1cc(F)c(C(=O)N[C@@H](Cc1ccc(-c3c(C(F)(F)F)cc(C)n(C)c3=O)c3ncccc13)C(=O)O)c2F)C(F)(F)F` [Example 146, (S)-2-(5,7-difluoro-1-((R)-1,1,1-trifluorobutan-2-yl)-1,2,3,4-tetrahydroquinoline-6-carboxamido)-3-(8-(1,6-dimethyl-2-oxo-4-(trifluoromethyl)-1,2-dihydropyridin-3-yl)quinolin-5-yl)propanoic acid] registered an EC50 of 0.6 nM.
`O=C(N[C@@H](Cc1ccc(-c2c(Cl)cc(F)cc2Cl)c2ncc(F)cc12)C(=O)O)c1c(F)cccc1F` [Example 32, (S)-3-(8-(2,6-dichloro-4-fluorophenyl)-3-fluoroquinolin-5-yl)-2-(2,6-difluorobenzamido)propanoic acid] yielded an EC50 of 75.9 nM.
The same measure, in the same setting: for `CCOCc1cc(OC)c(-c2cc(F)c(C[C@H](NC(=O)c3c(F)cccc3F)C(=O)O)c3cccnc23)c(OC)c1` [Example 39, (S)-2-(2,6-difluorobenzamido)-3-(8-(4-(ethoxymethyl)-2,6-dimethoxyphenyl)-6-fluoroquinolin-5-yl)propanoic acid] the value was 81.6 nM; for `CC[C@@H](Nc1cc(F)c(C(=O)N[C@@H](Cc2ccc(-c3cc4ccncc4n(C)c3=O)c3ncccc23)C(=O)O)c(F)c1)C(F)(F)F` [Example 110, (S)-2-(2,6-difluoro-4-(((R)-1,1,1-trifluorobutan-2-yl)amino)benzamido)-3-(8-(1-methyl-2-oxo-1,2-dihydro-1,7-naphthyridin-3-yl)quinolin-5-yl)propanoic acid], 0.3 nM; for `N#Cc1ccc(-c2ccc(C[C@H](NC(=O)c3c(F)cc(C(=O)O)cc3F)C(=O)O)c3cccnc23)c(Cl)c1` [Example 25, (S)-4-((1-carboxy-2-(8-(2-chloro-4-cyanophenyl)quinolin-5-yl)ethyl)carbamoyl)-3,5-difluorobenzoic acid], 3.3 nM.
`O=C(N[C@@H](Cc1ccc(-c2ccsc2)c2ncccc12)C(=O)O)c1c(F)cc(NS(=O)(=O)c2ccc(-c3ccnc(F)c3)cc2)cc1F` [Example 52, (S)-2-(2,6-difluoro-4-((4-(2-fluoropyridin-4-yl)phenyl)sulfonamido)benzamido)-3-(8-(thiophen-3-yl)quinolin-5-yl)propanoic acid]: the midpoint of the response, the EC50, lay at 91.5 nM.
On to `CC[C@@H](Nc1cc(F)c(C(=O)N[C@@H](Cc2ccc(-c3c(C(F)(F)F)cc(C)n(C)c3=O)c3ncccc23)C(=O)O)cc1C)C(F)(F)F` [Example 145, (S)-3-(8-(1,6-dimethyl-2-oxo-4-(trifluoromethyl)-1,2-dihydropyridin-3-yl)quinolin-5-yl)-2-(2-fluoro-5-methyl-4-(((R)-1,1,1-trifluorobutan-2-yl)amino)benzamido)propanoic acid], for which a half-maximal response (EC50) required 3.1 nM.
Still for that read-out and setting: then `CC[C@H](C)Nc1cc(F)c(C(=O)N[C@@H](Cc2ccc(-c3c(C(F)(F)F)cc(C)n(C)c3=O)c3ncccc23)C(=O)O)c(F)c1` [Example 134, (S)-2-(4-(((S)-sec-butyl)amino)-2,6-difluorobenzamido)-3-(8-(1,6-dimethyl-2-oxo-4-(trifluoromethyl)-1,2-dihydropyridin-3-yl)quinolin-5-yl)propanoic acid], with 4.2 nM.

The same assay, now with this note: Table 2; capture of α4β7 expressing RPM18866 cells on MadCAM-1 extracellular domain-coated plate.
Consider `N#Cc1ccc(-c2ccc(C[C@H](NC(=O)c3c(F)cc(NC4(C(F)(F)F)CCC4)cc3F)C(=O)O)c3cccnc23)c(Cl)c1` [Example 164], for which a half-maximal effect (EC50) was put at 88.6 nM. In other words, the double-digit nanomolar range.
Molecule `O=C(N[C@@H](Cc1ccc(NC(=O)c2c(Cl)cncc2Cl)c2ncccc12)C(=O)O)c1c(F)cccc1F` [Example 316] yielded a 50% effective concentration (EC50) of 13.7 nM.
Turning to `Cc1cc(C(F)(F)F)c(-c2ccc(C[C@H](NC(=O)c3c(F)cccc3F)C(=O)O)c3cccnc23)c(=O)n1C` [Example 218], it took 2.1 nM to reach a half-maximal effect (EC50).
`CC[C@@H](Nc1cc(F)c(C(=O)N[C@@H](Cc2ccc(-c3nc(C)cn(C)c3=O)c3ncccc23)C(=O)O)c(F)c1)C(F)(F)F` [Example 209] gave a 50% effective concentration (EC50) of 1.9 nM.
`CC[C@@H](Nc1cc(F)c(C(=O)N[C@@H](Cc2ccc(-c3c(C)c4cc(F)ccc4n(C)c3=O)c3ncccc23)C(=O)O)c(F)c1)C(F)(F)F` (atropisomer, axis not shown) [Example 185] yielded an EC50 of 1 nM.
Take `C[C@H](NC(=O)c1cc(F)c(C(=O)N[C@@H](Cc2ccc(-c3ccc(C#N)cc3Cl)c3ncccc23)C(=O)O)c(F)c1)c1ccccc1` [Example 162]: the EC50 was 53.5 nM.
`CC[C@@H](Nc1cc(F)c(C(=O)N[C@@H](Cc2ccc(-c3nc(C)c(C)nc3C)c3ncccc23)C(=O)O)c(F)c1)C(F)(F)F` [Example 295] yielded a half-maximal effective concentration (EC50) of 7.4 nM.
Molecule `CC[C@@H](Nc1cc(F)c(C(=O)N[C@@H](Cc2ccc(-c3c(C(F)(F)F)c4cc(N(C)C)ccc4n(C)c3=O)c3ncccc23)C(=O)O)c(F)c1)C(F)(F)F` (atropisomer, axis not shown) [Example 168] gave an EC50 of 0.5 nM. This EC50 is about 15-fold lower than that of the molecule before.
Molecule `CC[C@@H](Nc1cc(F)c(C(=O)N[C@@H](Cc2ccc(-c3c(Cl)cc(C)n(C)c3=O)c3ncccc23)C(=O)O)c(F)c1)C(F)(F)F` [Example 343] showed an EC50 of 0.7 nM. This EC50 and that of the molecule before are within 1.5-fold of each other.
`CCC(CC)Nc1cc(F)c(C(=O)N[C@@H](Cc2ccc(-c3c(C(F)(F)F)cc(C)n(C)c3=O)c3ncccc23)C(=O)O)c(F)c1` [Example 272] gave an EC50 of 4.5 nM.
Consider `N#Cc1ccc(-c2ccc(C[C@H](NC(=O)c3c(F)cc(C(=O)NC4CC4)cc3F)C(=O)O)c3cccnc23)c(Cl)c1` [Example 197], for which the EC50 amounted to 63.4 nM.
As to `N#Cc1ccc(-c2ccc(C[C@H](NC(=O)c3c(F)cc(C4=CCOCC4)cc3F)C(=O)O)c3cccnc23)c(Cl)c1` [Example 150], the concentration giving a half-maximal response (EC50) worked out at 43.6 nM. The EC50 values of the last two molecules are within 1.5-fold of each other.
`O=C(N[C@@H](Cc1ccc(-c2c(Cl)cc(F)cc2Cl)c2ncccc12)C(=O)O)c1c(F)cc(N[C@H](c2ccccc2)C(F)(F)F)cc1F` [Example 282] showed a concentration for a half-maximal effect (EC50) of 26.8 nM.
